The conditions of series [1]: Sanftner et al Xenobiotica 2009; cited from earlier work.
The target in series [2] is T1, macrophage inhibitory factor (MIF) (Homo sapiens, UniProt P14174).
T1 sequence (P14174 2-115 limits assumed): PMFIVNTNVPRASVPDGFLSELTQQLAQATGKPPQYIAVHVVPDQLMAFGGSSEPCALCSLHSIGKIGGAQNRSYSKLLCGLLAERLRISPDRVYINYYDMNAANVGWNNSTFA
The following applies: Cho et al., PNAS-USA 2010; cited from earlier work.

In series [3] the target is PDE 3A (Homo sapiens, UniProt Q14432). As to conditions: Gibson et al., Eur. J. Pharmacol. 2006; cited from earlier work.
PDE 3A, sequence (Q14432 whole entry): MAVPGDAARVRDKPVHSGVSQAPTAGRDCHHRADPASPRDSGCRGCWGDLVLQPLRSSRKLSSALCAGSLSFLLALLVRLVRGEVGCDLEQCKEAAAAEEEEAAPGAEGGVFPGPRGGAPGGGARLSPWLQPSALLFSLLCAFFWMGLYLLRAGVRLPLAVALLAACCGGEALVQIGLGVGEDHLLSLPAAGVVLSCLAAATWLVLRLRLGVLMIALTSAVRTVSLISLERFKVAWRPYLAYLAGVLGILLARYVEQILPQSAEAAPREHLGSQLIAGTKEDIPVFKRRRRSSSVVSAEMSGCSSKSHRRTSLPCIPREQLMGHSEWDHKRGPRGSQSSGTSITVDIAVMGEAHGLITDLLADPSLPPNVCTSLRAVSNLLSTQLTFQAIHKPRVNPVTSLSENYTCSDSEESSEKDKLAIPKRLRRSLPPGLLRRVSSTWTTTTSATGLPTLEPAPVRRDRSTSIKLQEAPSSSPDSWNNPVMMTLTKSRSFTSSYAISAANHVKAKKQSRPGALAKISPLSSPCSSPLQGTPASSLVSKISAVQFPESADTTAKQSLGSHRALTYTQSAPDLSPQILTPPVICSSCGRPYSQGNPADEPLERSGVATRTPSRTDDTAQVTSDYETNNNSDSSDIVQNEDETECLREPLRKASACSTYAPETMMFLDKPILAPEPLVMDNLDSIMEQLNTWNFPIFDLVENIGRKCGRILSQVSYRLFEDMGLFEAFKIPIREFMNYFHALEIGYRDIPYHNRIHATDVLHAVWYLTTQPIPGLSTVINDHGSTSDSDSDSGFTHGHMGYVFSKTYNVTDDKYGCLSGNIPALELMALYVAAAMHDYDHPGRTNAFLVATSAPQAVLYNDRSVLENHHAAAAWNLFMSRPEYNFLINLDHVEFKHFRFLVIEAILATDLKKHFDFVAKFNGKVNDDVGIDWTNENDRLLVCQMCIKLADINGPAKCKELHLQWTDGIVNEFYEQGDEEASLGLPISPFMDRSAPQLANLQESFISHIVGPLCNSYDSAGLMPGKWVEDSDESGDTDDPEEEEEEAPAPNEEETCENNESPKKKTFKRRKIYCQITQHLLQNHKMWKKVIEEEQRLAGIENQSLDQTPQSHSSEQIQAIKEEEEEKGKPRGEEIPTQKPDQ
In series [4] the target is PDE 11A1 (Homo sapiens, UniProt Q9HCR9). As to conditions: Gibson et al., Eur. J. Pharmacol. 2006; cited from earlier work.
PDE 11A1, sequence (Q9HCR9 445-933): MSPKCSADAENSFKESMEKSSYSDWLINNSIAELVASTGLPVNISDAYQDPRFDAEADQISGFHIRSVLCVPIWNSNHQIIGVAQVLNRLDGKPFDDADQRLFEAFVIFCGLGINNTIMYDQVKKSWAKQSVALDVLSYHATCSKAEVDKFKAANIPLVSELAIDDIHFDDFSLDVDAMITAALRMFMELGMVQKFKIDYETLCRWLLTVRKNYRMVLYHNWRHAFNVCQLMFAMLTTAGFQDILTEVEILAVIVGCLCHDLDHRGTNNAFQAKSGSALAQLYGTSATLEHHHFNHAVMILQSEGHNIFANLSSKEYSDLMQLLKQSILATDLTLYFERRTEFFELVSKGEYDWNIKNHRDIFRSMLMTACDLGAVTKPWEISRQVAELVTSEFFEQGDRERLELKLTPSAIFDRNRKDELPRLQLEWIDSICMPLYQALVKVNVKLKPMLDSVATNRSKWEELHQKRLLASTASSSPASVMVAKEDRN
Series [5] has as its target PDE 10A1 (Homo sapiens, UniProt Q9Y233). As to conditions: Gibson et al., Eur. J. Pharmacol. 2006; cited from earlier work.
For series [6], the target named is toll-like receptor-4 (TLR4) (Homo sapiens, UniProt O00206). As to conditions: Yang et al., Cell Death and Disease 2016; cited from earlier work.
toll-like receptor-4 (TLR4), sequence (O00206 24-839, species assumed): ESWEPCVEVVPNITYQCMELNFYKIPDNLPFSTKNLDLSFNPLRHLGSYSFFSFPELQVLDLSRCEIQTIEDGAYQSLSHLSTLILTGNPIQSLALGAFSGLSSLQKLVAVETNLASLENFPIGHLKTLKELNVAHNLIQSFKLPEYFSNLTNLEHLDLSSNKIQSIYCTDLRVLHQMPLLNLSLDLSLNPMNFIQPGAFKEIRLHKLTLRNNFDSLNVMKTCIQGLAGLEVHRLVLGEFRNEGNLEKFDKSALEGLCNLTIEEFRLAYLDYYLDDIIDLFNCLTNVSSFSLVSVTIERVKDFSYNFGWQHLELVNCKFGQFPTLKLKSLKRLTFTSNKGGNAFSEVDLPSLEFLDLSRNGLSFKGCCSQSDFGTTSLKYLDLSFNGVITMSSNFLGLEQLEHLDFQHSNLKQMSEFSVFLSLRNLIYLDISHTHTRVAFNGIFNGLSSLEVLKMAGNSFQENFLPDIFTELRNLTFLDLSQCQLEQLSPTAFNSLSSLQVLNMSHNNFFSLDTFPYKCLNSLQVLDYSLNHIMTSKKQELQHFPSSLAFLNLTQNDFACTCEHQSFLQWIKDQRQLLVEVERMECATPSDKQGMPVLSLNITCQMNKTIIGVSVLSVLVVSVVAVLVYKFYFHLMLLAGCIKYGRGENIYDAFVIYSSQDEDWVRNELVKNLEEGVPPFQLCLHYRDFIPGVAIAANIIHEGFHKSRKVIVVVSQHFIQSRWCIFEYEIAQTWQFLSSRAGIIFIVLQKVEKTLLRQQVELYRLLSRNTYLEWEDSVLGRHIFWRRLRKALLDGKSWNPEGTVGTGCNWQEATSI
toll-like receptor-4 (TLR4), sequence (Q9Y6Y9 17-160 partner limits assumed, species assumed): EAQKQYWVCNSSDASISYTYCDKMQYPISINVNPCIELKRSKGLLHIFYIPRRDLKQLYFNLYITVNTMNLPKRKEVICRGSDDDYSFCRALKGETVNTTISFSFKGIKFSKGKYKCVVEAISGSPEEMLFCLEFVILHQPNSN
Series [7] relates to MIF. Description: plasma level of MIF after ibudilast. The following applies: found by the inventors; no data given.
In series [8] the test system is PDE 4. The following applies: Gibson et al., Eur. J. Pharmacol. 2006; cited from earlier work.

The values below come from patent US12042485B2, “Methods of minimizing cancer metastasis” (MEDICINOVA, INC., priority 2021, dated 2024).

Structures are written as SMILES.

PDE 10A1, sequence (Q9Y233 1-779 isoform Q9Y233-1): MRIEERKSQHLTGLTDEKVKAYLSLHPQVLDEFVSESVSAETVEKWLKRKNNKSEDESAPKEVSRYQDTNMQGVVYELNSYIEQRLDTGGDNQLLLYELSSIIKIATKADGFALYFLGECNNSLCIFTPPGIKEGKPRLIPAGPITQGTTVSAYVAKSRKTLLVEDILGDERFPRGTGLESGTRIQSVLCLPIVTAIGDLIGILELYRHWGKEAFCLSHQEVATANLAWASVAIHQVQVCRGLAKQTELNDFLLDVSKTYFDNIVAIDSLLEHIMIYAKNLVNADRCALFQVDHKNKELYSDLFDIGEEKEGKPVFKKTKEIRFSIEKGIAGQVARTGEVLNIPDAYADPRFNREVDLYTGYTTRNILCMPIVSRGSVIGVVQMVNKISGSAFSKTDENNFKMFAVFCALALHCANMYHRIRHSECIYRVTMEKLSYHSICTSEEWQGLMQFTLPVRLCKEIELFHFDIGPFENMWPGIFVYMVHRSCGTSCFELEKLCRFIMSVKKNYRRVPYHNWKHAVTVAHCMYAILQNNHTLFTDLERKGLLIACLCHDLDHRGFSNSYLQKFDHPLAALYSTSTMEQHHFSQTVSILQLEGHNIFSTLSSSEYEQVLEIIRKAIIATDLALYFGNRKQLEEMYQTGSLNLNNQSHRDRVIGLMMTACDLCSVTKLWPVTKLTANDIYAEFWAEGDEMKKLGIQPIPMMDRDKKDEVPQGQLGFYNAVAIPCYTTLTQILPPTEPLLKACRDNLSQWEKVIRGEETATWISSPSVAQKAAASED

On to `CC(C)C(=O)c1c(C(C)C)nn2ccccc12` [ibudilast, 2-methyl-1-(2-(1-methylethyl)pyrazolo(1,5-a)pyridin-3-yl)1-propanone], for which the CNS penetration result in series [1] is reported as “good CNS penetration”. In addition, the “inhibition of HPP tautomerase activity of MIF” value in series [2] is reported as “allosteric inhibitor”. In addition, in series [3], the “inhibition of PDE 3A” value was “selective inhibitor”. Further, the “inhibition of PDE 11A1” value in series [4] was “selective inhibitor”. The “inhibition of PDE 10A1” value in series [5] is on record as “selective inhibitor”. The TLR4 antagonistic activity entry in series [6] was “antagonistic activity”. In series [7], the “plasma level of MIF” value is “lowers”. Further, the “inhibition of PDE 4” value in series [8] was “selective inhibitor”.
